System: SW480
Experiment: drug sensitivity score (DSS, integrated dose-response area); higher = more sensitive (stronger viability reduction); extreme values may be limits of the assay
Method in brief: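 SW480 cells stably carrying doxycycline-inducible control or SND1-targeting shRNA were induced with 0.1 µg/mL doxycycline for 7 days. They were then plated at 1000 cells per well in 384-well plates holding 525 commercially available small-molecule inhibitors at five concentrations. Viability was read with CellTiter-Glo after 72 h. The drug sensitivity score integrates the area under a fitted non-linear dose–response model.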

[1] = shRNA: SND1 shRNA1 (SND1 silenced)
[2] = shRNA: SND1 shRNA2 (SND1 silenced)
[3] = shRNA: control shRNA (non-targeting)

CN1CCc2c(c3ccccc3n2Cc2ccc(C(=O)NO)cc2)C1 [Tubastatin A] showed a drug sensitivity score [1] of 4.3 DSS, a drug sensitivity score [2] of 5 DSS and a drug sensitivity score [3] of 6.4 DSS.
C=CC(=O)Nc1cccc(Nc2nc(Nc3ccc(OCCOC)cc3)ncc2F)c1 [Spebrutinib] showed a drug sensitivity score [1] of 2.5 DSS, a drug sensitivity score [2] of 0 DSS and a drug sensitivity score [3] of 4.4 DSS.
COc1ccc(C[C@H](NC(=O)[C@H](C)NC(=O)CN2CCOCC2)C(=O)N[C@@H](Cc2ccccc2)C(=O)C2(C)CO2)cc1 (stereo in doubt) [ONX-0914] showed a drug sensitivity score [1] of 12.9 DSS, a drug sensitivity score [2] of 12.6 DSS and a drug sensitivity score [3] of 15.4 DSS.
CC(C)NC(=O)COc1cccc(-c2nc(Nc3ccc4[nH]ncc4c3)c3ccccc3n2)c1 [SLx-2119] gave a drug sensitivity score [1] of 0 DSS, a drug sensitivity score [2] of 0 DSS and a drug sensitivity score [3] of 0 DSS.
CCN1CCN(Cc2ccc(-c3cc4c(N[C@H](C)c5ccccc5)ncnc4[nH]3)cc2)CC1 [NVP-AEE788] gave a drug sensitivity score [1] of 1.5 DSS, a drug sensitivity score [2] of 1.3 DSS and a drug sensitivity score [3] of 2.8 DSS.
For O=NN(CCCl)C(=O)NCCCl [Carmustine], the drug sensitivity score [1] was 0 DSS, the drug sensitivity score [2] was 0 DSS and the drug sensitivity score [3] was 0.4 DSS.
Nc1nc(Cl)nc2c1ncn2[C@@H]1O[C@H](CO)[C@@H](O)[C@@H]1F [Clofarabine] showed a drug sensitivity score [1] of 8.4 DSS, a drug sensitivity score [2] of 0.7 DSS and a drug sensitivity score [3] of 6.5 DSS.
Work on CN[C@@H](C)C(=O)N[C@H](C(=O)N1CCC[C@H]1c1nc(C(=O)c2ccc(F)cc2)cs1)C1CCCCC1 [LCL161] yielded a drug sensitivity score [1] of 0.2 DSS, a drug sensitivity score [2] of 0 DSS and a drug sensitivity score [3] of 0.5 DSS.
With O=C(O)c1ccc(CN2CCC(CN[C@@H]3C[C@H]3c3ccccc3)CC2)cc1 the drug sensitivity score [1] was 0 DSS, the drug sensitivity score [2] was 8 DSS and the drug sensitivity score [3] was 1.2 DSS.
In the case of COc1cc2c(NC3CCN(C(C)C)CC3)nc(C3CCCCC3)nc2cc1OCCCN1CCCC1 [UNC0638], the drug sensitivity score [1] is reported as 9.1 DSS, the drug sensitivity score [2] is reported as 6.5 DSS and the drug sensitivity score [3] is reported as 9.7 DSS.
Compound C=CCN(/C=C1/C(=O)O[C@H](COC)[C@@]2(C)C1=C(O)C(=O)C1=C2[C@H](OC(C)=O)C[C@]2(C)C(=O)CC[C@@H]12)CC=C [Sonolisib] has a drug sensitivity score [1] of 0 DSS, a drug sensitivity score [2] of 0.3 DSS and a drug sensitivity score [3] of 2.1 DSS.
Compound O=C1NC(=O)[C@@H](c2cn3c4c(cccc24)CCC3)[C@@H]1c1c[nH]c2ccccc12 [Tivantinib] has a drug sensitivity score [1] of 6.4 DSS, a drug sensitivity score [2] of 4 DSS and a drug sensitivity score [3] of 5.4 DSS.
With Cc1cccc(CC(=O)N2CCc3c2ccc(-c2cn(C)c4ncnc(N)c24)c3F)n1 the drug sensitivity score [1] was 0 DSS, the drug sensitivity score [2] was 3.3 DSS and the drug sensitivity score [3] was 0 DSS.
COc1ccc(-c2ccc3ncc4c(c3c2)n(-c2ccc(N3CCNCC3)c(C(F)(F)F)c2)c(=O)n4C)cn1 [NVP-BGT226] showed a drug sensitivity score [1] of 18.6 DSS, a drug sensitivity score [2] of 20.6 DSS and a drug sensitivity score [3] of 19 DSS.
Work on O[C@H]1CC[C@H](Nc2ncc3nc(Nc4c(F)cc(F)cc4F)n([C@H]4CCOC4)c3n2)CC1 [Tanzisertib] yielded a drug sensitivity score [1] of 2.9 DSS and a drug sensitivity score [3] of 3.4 DSS.
CCc1cc2c(cc1N1CCC(N3CCOCC3)CC1)C(C)(C)c1[nH]c3cc(C#N)ccc3c1C2=O [Alectinib] was tested, and the drug sensitivity score [1] was 0 DSS, the drug sensitivity score [2] was 0 DSS and the drug sensitivity score [3] was 0 DSS.
Work on CC[C@H](CO)Nc1nc(NCc2ccccc2)c2ncn(C(C)C)c2n1 [Seliciclib] yielded a drug sensitivity score [1] of 2.1 DSS, a drug sensitivity score [2] of 0.7 DSS and a drug sensitivity score [3] of 1.2 DSS.
CC(C)(C)Cn1c(N)nc2ccc(-c3[nH]c(C(C)(C)C)nc3-c3ccc(F)cc3)nc21 [Ralimetinib] gave a drug sensitivity score [1] of 1.7 DSS, a drug sensitivity score [2] of 0 DSS and a drug sensitivity score [3] of 0.2 DSS.
In the case of Cn1c(=O)n(-c2ccc(C(C)(C)C#N)cc2)c2c3cc(-c4cnc5ccccc5c4)ccc3ncc21 [Dactolisib], the drug sensitivity score [1] is reported as 17.8 DSS, the drug sensitivity score [2] is reported as 17.8 DSS and the drug sensitivity score [3] is reported as 11.3 DSS.
Work on CCC(C)n1ncn(-c2ccc(N3CCN(c4ccc(OCC5COC(Cn6cncn6)(c6ccc(Cl)cc6Cl)O5)cc4)CC3)cc2)c1=O (stereo not drawn) [Itraconazole] yielded a drug sensitivity score [1] of 4.2 DSS, a drug sensitivity score [2] of 0.2 DSS and a drug sensitivity score [3] of 1.5 DSS.
With O=C(O)CSc1cc(NS(=O)(=O)c2ccc(Br)cc2)c2ccccc2c1O [UMI-77] the drug sensitivity score [1] was 14.5 DSS, the drug sensitivity score [2] was 13.4 DSS and the drug sensitivity score [3] was 15.8 DSS.
Work on Nc1ccn([C@@H]2O[C@H](CO)[C@@H](O)[C@@H]2O)c(=O)n1 [Cytarabine] yielded a drug sensitivity score [1] of 5.4 DSS, a drug sensitivity score [2] of 0 DSS and a drug sensitivity score [3] of 3.6 DSS.
Work on N[C@@H](Cc1ccc(N(CCCl)CCCl)cc1)C(=O)O [Melphalan] yielded a drug sensitivity score [1] of 0 DSS and a drug sensitivity score [3] of 0 DSS.
In the case of Cc1nc(C(=O)NCC(=O)O)c(O)c2ccc(Oc3ccccc3)cc12 [FG-4592], the drug sensitivity score [1] is reported as 4.8 DSS, the drug sensitivity score [2] is reported as 1 DSS and the drug sensitivity score [3] is reported as 2.5 DSS.
In the case of CN(c1ncccc1CNc1nc(Nc2ccc3c(c2)CC(=O)N3)ncc1C(F)(F)F)S(C)(=O)=O, the drug sensitivity score [1] is reported as 4.9 DSS, the drug sensitivity score [2] is reported as 3.5 DSS and the drug sensitivity score [3] is reported as 3.4 DSS.
